For data set [1], the target named is T1, SaHPPK (Staphylococcus aureus, UniProt A0A0H3JXR3). Also on record: method as in Chhabra et al PlosONE 2012. The following applies: ITC; ref Chhabra et al PlosONE 2012; cited from earlier work.
The target in data set [2] is T1, SaHPPK. More on the design: method as in PMID 22276115. Conditions: inhibition of the S. aureus enzyme; cited from earlier work.
Data set [3] has as its target T1, SaHPPK. More on the design: method as in PMID 22276115. Conditions: SPR and ITC; cited from earlier work.
Data set [4] has as its target T1, SaHPPK. As to the kind of experiment: SPR binding to SaHPPK. From the text: Initially, the binding of each of the test compounds to SaHPPK was quantitatively assessed using SPR (Fig. S1, S2). […] Moreover, all sensorgrams (Fig. S1 and S2) were of high quality and consistent with near perfect 1∶1 stoichiometric binding of analogues. Table 1 lists the estimated equilibrium dissociation constants (KD). […] This supports the hypothesis that the 8-mercapto group of 8-MG aids binding through the formation of one or more favorable interactions with SaHPPK.
All SPR binding experiments were performed as described previously. The only difference was the use of a sulfhydryl reactive maleimide-activated biotin derivative (Thermo Scientific, 1-biotinamido-4-(4′-[maleimidoethylcyclohexane]-carboxamido)butane. The maleimide-activated biotin was attached to the exposed surface cysteine residue of SaHPPK according to manufacturer’s instructions. The resulting site-specific biotinylated protein was immobilized onto the sensor chip surface using the Biotin capture kit (GE Healthcare). All analogues were serially diluted (either 2- or 3-fold from 126 µM down to 1.5 µM) in SPR binding buffer (50 mM HEPES, 150 mMNaCl, 1 mM TCEP, 0.05% (v/v) Tween-20, 10 mM MgCl2, 5% (v/v) DMSO, pH 8.0) and injected for 30 sec contact time at 60 µL/min and then allowed to dissociate for 60 sec. Binding sensorgrams were processed using the Scrubber (version 2c, BioLogic Software, Campbell, Australia). To determine the binding affinity (equilibrium dissociation constant; KD), responses at equilibrium for each compound were fit to a 1∶1 steady state affinity model available within Scrubber.
For orientation: SPR reads the build-up and loss of mass on a sensor chip optically.

In data set [5] the target is T1, SaHPPK. As to the kind of experiment: ITC binding to SaHPPK. The following applies: 298 K; for ΔG: calculated as -RT.lnKa; for TΔS: calculated using ΔG = ΔH - TΔS; for Kd: read-out: K D ITC. Here is the method: To corroborate the ligand binding affinities determined by SPR, and to determine the enthalpic and entropic contributions to the free energy of binding, ITC experiments were performed for selected compounds (21a and 21c–21e) (Table 2, Fig. S3). […] To investigate the factors contributing to the free energy of binding, we solved the structure of SaHPPK in complex with 21a.
Experiments were performed using an iTC200 instrument (MicroCal) at 298 K, with the ligands titrated into solutions of SaHPPK using 18×2.2 µL injections. Data were fitted using Origin software to yield the thermodynamic parameters, ΔH, KD and N (the binding stoichiometry), assuming a cell volume of 0.2 mL. These were then used to calculate the Gibb’s free energy of binding, ΔG (-RT.lnK a), and entropy of binding, ΔS (using ΔG = ΔH - TΔS). A stock solution of SaHPPK was dialyzed overnight into 50 mM HEPES, 1 mM TCEP, 10 mM MgCl2, pH 8.0 buffer with the addition of 5% DMSO (v/v) prior to running the experiment. For titrations with compounds 21a–e, SaHPPK was typically at 30 µM and the ligand stocks were at 1–1.5 mM dissolved in the above buffer then diluted into more of the same buffer. There was no apparent issue with limited solubility of 21a–c compromising either the stock solutions or the injected concentrations.

Data set [6] deals with T1, SaHPPK. As to the kind of experiment: 2D 15N NMR titration of 15N-labelled SaHPPK. It counts as binding. As to the method: ^15N-labelled protein samples for NMR spectroscopy were prepared as described. 2D soFast ^15N HMQC [43] NMR experiments were recorded on a Varian Inova 600 MHz NMR spectrometer equipped with a cryoprobe and Z axis gradient on samples of ∼100 µM ^15N-labelled SaHPPK dissolved in 50 mM HEPES buffer (pH 8.0, 90% H2O 10% D2O, 1% sorbitol) by titrating in aliquots from a 25 mM stock of 21a dissolved in DMSO-D6.

Data set [7] has as its target T1, SaHPPK. The following applies: cofactor analogue; no reference given; cited from earlier work.
Another data set has as its target HPPK. Also on record: method as in PMID 10751386, PMID 12093297, PMID 11311059, PMID 10825540, PMID 22169600. The following applies: ATP binds prior to the substrate; cited from earlier work.
Where [8] appears, read: SPR, in the presence of 10 mM Mg2+/1 mM ATP, 293 K, read-out: K D b.
The mark [9] stands for this setting: SPR, in the presence of 10 mM Mg2+, 293 K.
[10] abbreviates: SPR, in the presence of 10 mM Mg2+, 293 K, read-out: K D a.

Entries after “also recorded” stand apart in the source; their conditions may differ. Read-outs that look alike come from different tables or passages of the source.

Broadly, the IC50 is the concentration that inhibits the measured activity by half. Broadly, the melting point is the temperature, or range, at which the solid turns liquid.

T1 sequence (A0A0H3JXR3 entry or part of it): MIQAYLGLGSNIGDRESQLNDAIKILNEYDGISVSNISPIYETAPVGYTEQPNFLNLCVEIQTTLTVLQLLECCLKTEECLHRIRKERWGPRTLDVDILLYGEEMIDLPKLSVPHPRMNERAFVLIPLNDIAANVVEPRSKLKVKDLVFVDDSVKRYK

For `Nc1nc2nc(S)[nH]c2c(=O)[nH]1` [8-MG, 8-mercaptoguanine], on SaHPPK [1], the “N (binding stoichiometry)” value is 1.0±0.06, the TΔS is -12.9 ± 3.5 kcal/mol, the ΔG is -6.7 ± 0.2 kcal/mol and the ΔH was -19.6 ± 3.4 kcal/mol. Besides, the IC50 on SaHPPK [2] is around 41 µM. Also, the “binding relative to the cofactor (ATP / AMPCPP)” value at SaHPPK [3] is reported as “non-competitive”.
In the case of `CNc1nc2nc(N)[nH]c(=O)c2[nH]1` [10a, 8-(Methylamino)guanine], the melting point is 252 to 257 °C (dec.). For the same compound, the Kd at SaHPPK [4] (setting [8]) amounted to 108 ± 5 µM. Further, at SaHPPK [4] (setting [9]), the “K D a” value is recorded as “did not bind; also recorded: No binding”.
Take `Cn1c(S)nc2c(=O)[nH]c(N)nc21` [15a]: the Kd amounted to 410 ± 10 µM at SaHPPK [4] (setting [8]) and 194 ± 5 µM on SaHPPK [4] (setting [10]).
With `CCn1c(S)nc2c(=O)[nH]c(N)nc21` [15b, 8-Mercapto-9-ethylguanine], the melting point was 240 to 244 °C (dec.). For the same compound, the Kd at SaHPPK [4] (setting [8]) was 340 ± 10 µM. Besides, the Kd on SaHPPK [4] (setting [10]) amounted to 190 ± 10 µM.
For `Nc1nc2c(nc(S)n2Cc2ccccc2)c(=O)[nH]1` [15c, 8-Mercapto-9-benzylguanine], the melting point was > 300 °C (dec.). On SaHPPK [4] (setting [8]), the Kd came to 201 ± 6 µM. Moreover, the Kd at SaHPPK [4] (setting [10]) amounted to 106 ± 2 µM.
In the same order, the values of `Nc1nc2c(nc(S)n2CCc2ccccc2)c(=O)[nH]1` [15d, 8-Mercapto-9-phenethylguanine] are 291 to 295 °C (dec.), 510 ± 20 µM and 145 ± 4 µM.
For `Nc1nc2nc(S)n(CCO)c2c(=O)[nH]1` [21a, 7-(2-Hydroxyethyl)-8-mercaptoguanine], the melting point is above 300 °C. Besides, on SaHPPK [5], the “N (binding stoichiometry)” value is recorded as 0.8±0.10, the ΔH is -10.5 ± 0.6 kcal/mol, the ΔG is -6.4 ± 0.1 kcal/mol and the TΔS is -4.1 ± 0.5 kcal/mol. Also, on SaHPPK [5], the Kd is 16.7 ± 3.5 µM. For the same compound, at SaHPPK [6] (NMR (and SPR), saturating AMPCPP 1 mM, 10 mM magnesium), the “binding relative to the cofactor (ATP / AMPCPP)” value is “competitive binding with the ATP cofactor; also recorded: competitive with AMPCPP”. Also, the “magnesium dependence of binding” value at SaHPPK [6] (titration into apo and magnesium-loaded SaHPPK) is “not magnesium-dependent”. In addition, the Kd at SaHPPK [4] (setting [8]) is 130 ± 10 µM. Moreover, the Kd on SaHPPK [4] (setting [10]) turned out to be 12.3 ± 1 µM. For the same compound, at SaHPPK [4] (approximate value, over 15 heavy atoms, read-out: K D (ligand efficiency comparison)), the Kd is around 10 µM.
For the compound `Nc1nc2nc(S)n(CC(=O)O)c2c(=O)[nH]1` [21b, 2-(8-Mercaptoguanin-7-yl)acetic acid], the melting point is 247 to 253 °C (dec.). Moreover, the Kd at SaHPPK [4] (setting [8]) stood at 140 ± 4 µM. Further, on SaHPPK [4] (setting [9]), the “K D a” value was “did not bind; also recorded: No binding”.
Regarding `NCCn1c(S)nc2nc(N)[nH]c(=O)c21` [21c, 7-(2-Aminoethyl)-8-mercaptoguanine], the melting point is 280 to 287 °C (dec.). At SaHPPK [5], the “N (binding stoichiometry)” value is reported as 1.2±0.02, the ΔH is -5.8 ± 0.1 kcal/mol, the ΔG was -6.2 ± 0.1 kcal/mol and the TΔS was 0.4 ± 0.2 kcal/mol. Besides, at SaHPPK [5], the Kd turned out to be 22.4 ± 2 µM. In addition, the Kd on SaHPPK [4] (setting [8]) stood at 160 ± 20 µM. For the same compound, the Kd at SaHPPK [4] (setting [10]) turned out to be 26.4 ± 3 µM.
Consider `NCCCn1c(S)nc2nc(N)[nH]c(=O)c21` [21d, 7-(3-Aminopropyl)-8-mercaptoguanine], for which the melting point is 239 to 243 °C (dec.). For the same compound, on SaHPPK [5], the “N (binding stoichiometry)” value came to 1.3±0.05, the ΔH was -6.2 ± 0.4 kcal/mol, the ΔG is -6.0 ± 0.1 kcal/mol and the TΔS is -0.2 ± 0.5 kcal/mol. In addition, on SaHPPK [5], the Kd worked out at 34.3 ± 6.2 µM. In addition, the Kd on SaHPPK [4] (setting [8]) was found to be 121 ± 6 µM. Besides, the Kd on SaHPPK [4] (setting [10]) was determined as 25.9 ± 2 µM.
Turning to `N=C(N)NCCn1c(S)nc2nc(N)[nH]c(=O)c21` [21e, 7-(2-Guanidinoethyl)-8-mercaptoguanine], the melting point is 256 to 262 °C (dec.). For the same compound, at SaHPPK [5], the “N (binding stoichiometry)” value amounted to 1.4±0.02, the ΔH was -4.3 ± 0.1 kcal/mol, the ΔG was -6.0 ± 0.1 kcal/mol and the TΔS is 1.7 ± 0.2 kcal/mol. The Kd on SaHPPK [5] turned out to be 35.1 ± 4.8 µM. Besides, the “K D b” value on SaHPPK [4] (SPR, in the presence of 10 mM Mg2+/1 mM ATP, 293 K) was “No binding”. The Kd at SaHPPK [4] (setting [10]) came to 30 ± 4 µM.
Regarding `Nc1ncnc2c1ncn2[C@@H]1O[C@H](COP(=O)(O)CP(=O)(O)OP(=O)(O)O)[C@@H](O)[C@H]1O` [AMPCPP], the Kd at SaHPPK [7] is 3000 nM.
As to `Nc1ncnc2c1ncn2[C@@H]1O[C@H](COP(=O)(O)OP(=O)(O)OP(=O)(O)O)[C@@H](O)[C@H]1O` [ATP], the Kd on HPPK is 2.6 to 4.5 µM.

These data come from PMC3614987, “Exploring the Chemical Space around 8-Mercaptoguanine as a Route to New Inhibitors of the Folate Biosynthesis Enzyme HPPK” (PLoS ONE, 2013).
